The values that follow come from patent publication US5824771A, “Cyclic CRF agonists” (The Salk Institute for Biological Studies, priority 1997, dated 1998).

The test system of experiment [1] is rat anterior pituitary cells. The experiment can be described thus: In vitro stimulation of ACTH and β-endorphin secretion by cultured rat pituitary cells, potency compared with oCRF (Standard) or r/hCRF. In kind it is cell-based. To be noted: for in vitro biopotency, comparison in words: compared with the Standard or with a named analog; for stimulation of secretion of ACTH and β-END-LI (testing by the general procedure), in words: general procedure of Example 1. The protocol: The cyclic CRF agonists are examined for their effects on the secretion of ACTH and β-endorphin in vitro and also in vivo. […] In vivo testing is carried out using the general procedure set forth in C. Rivier et al., Science, 218, 377 (1982).

A short description of experiment [2]: Lowering of blood pressure on peripheral or iv administration. In kind it is in vivo. Conditions: peripheral administration.

Like-named read-outs stand apart in the source and are kept apart here. Bridge positions count the residues as written; N and C are the ends. Square brackets hold non-standard residues; d marks the D form. Peptide text beside a SMILES is read from it. Nle = CCCC[C@H](N)C(=O)O

In the case of `CCCC[C@H](NC(=O)[C@H](CCCCN)NC(=O)[C@H](CCCNC(=N)N)NC(=O)[C@H](CC(C)C)NC(=O)[C@H](CC(C)C)NC(=O)[C@H](CCC(=O)O)NC(=O)[C@@H](CC(C)C)NC(=O)[C@H](CO)NC(=O)[C@H](CC(C)C)NC(=O)[C@H](CC(=O)O)NC(=O)[C@@H](NC(=O)[C@H](CO)NC(=O)[C@@H](NC(=O)[C@H]1CCCN1C(=O)[C@@H]1CCCN1C(C)=O)[C@@H](C)CC)[C@@H](C)CC)C(=O)N[C@H](C(=O)N[C@@H](CCC(=O)O)C(=O)N[C@H](C(=O)N[C@@H](CCC(=O)O)C(=O)N[C@@H](CCCCN)C(=O)N[C@@H](CCC(N)=O)C(=O)N[C@@H](CCC(=O)O)C(=O)N[C@@H](CCCCN)C(=O)N[C@@H](CCC(=O)O)C(=O)N[C@@H](CCCCN)C(=O)N[C@@H](CCC(N)=O)C(=O)N[C@H]1CCC(=O)NCCCC[C@@H](C(=O)N[C@@H](CC(N)=O)C(=O)N[C@@H](CCCNC(=N)N)C(=O)N[C@@H](CC(C)C)C(=O)N[C@@H](CC(C)C)C(=O)N[C@@H](CC(C)C)C(=O)N[C@@H](CC(=O)O)C(=O)N[C@H](C(=O)N[C@H](C(N)=O)[C@@H](C)CC)[C@@H](C)O)NC(=O)[C@@H](C)NC(=O)[C@H](C)NC1=O)[C@@H](C)CC)[C@@H](C)CC` [Example 8 B D-Ala^31 analog] (Ac-P[dP]ISIDLS[dL]ELLRK[Nle]IEIEKQEKEKQEA[dA]KNRLLLDTI-NH2; lactam 27-30), in experiment [1] (relative to the laboratory Standard (synthetic oCRF), cultured rat pituitary cells, limits in parentheses), the “in vitro potency to stimulate secretion of ACTH relative to the Standard” value is reported as “about 2 times”.
As to `CCCC[C@H](NC(=O)[C@H](CCC(=O)O)NC(=O)[C@H](CC(C)C)NC(=O)[C@H](CCCC)NC(=O)[C@H](CCC(=O)O)NC(=O)[C@H](CCCNC(=N)N)NC(=O)[C@H](CC(C)C)NC(=O)[C@H](CC(C)C)NC(=O)[C@H](Cc1c[nH]cn1)NC(=O)[C@@H](Cc1ccccc1)NC(=O)[C@@H](NC(=O)[C@H](CC(C)C)NC(=O)[C@H](CC(=O)O)NC(=O)[C@H](CC(C)C)NC(=O)[C@H](CO)NC(=O)[C@@H](NC(=O)[C@H]1CCCN1C(=O)[C@@H]1CCCN1C(C)=O)[C@@H](C)CC)[C@@H](C)O)C(=O)N[C@@H](C)C(=O)N[C@@H](CCCCN)C(=O)N[C@@H](C)C(=O)N[C@@H](CCC(=O)O)C(=O)N[C@@H](CCC(N)=O)C(=O)N[C@@H](CCC(=O)O)C(=O)N[C@@H](C)C(=O)N[C@@H](CCC(=O)O)C(=O)N[C@H]1CCC(=O)NCCCC[C@@H](C(=O)N[C@@H](CC(N)=O)C(=O)N[C@@H](CCCNC(=N)N)C(=O)N[C@@H](CC(C)C)C(=O)N[C@@H](CC(C)C)C(=O)N[C@@H](CC(C)C)C(=O)N[C@@H](CCC(=O)O)C(=O)N[C@@H](CCC(=O)O)C(=O)N[C@@H](C)C(N)=O)NC(=O)[C@@H](C)NC(=O)[C@H](C)NC1=O` [Example 8 C D-Ala^32 analog] (Ac-P[dP]ISLDLT[dF]HLLRE[Nle]LE[Nle]AKAEQEAEEA[dA]KNRLLLEEA-NH2; lactam 27-30), the “in vitro potency to stimulate secretion of ACTH relative to the Standard” value in experiment [1] is listed as “about 6.35 times”.
As for `CCCC[C@H](NC(=O)[C@H](CCC(=O)O)NC(=O)[C@H](CC(C)C)NC(=O)[C@H](CCCC)NC(=O)[C@H](CCC(=O)O)NC(=O)[C@H](CCCNC(=N)N)NC(=O)[C@H](CC(C)C)NC(=O)[C@H](CC(C)C)NC(=O)[C@H](Cc1c[nH]cn1)NC(=O)[C@@H](Cc1ccccc1)NC(=O)[C@@H](NC(=O)[C@H](CC(C)C)NC(=O)[C@H](CC(=O)O)NC(=O)[C@H](CC(C)C)NC(=O)[C@H](CO)NC(C)=O)[C@@H](C)O)C(=O)N[C@@H](C)C(=O)N[C@@H](CCCCN)C(=O)N[C@@H](C)C(=O)N[C@@H](CCC(=O)O)C(=O)N[C@@H](CCC(N)=O)C(=O)N[C@@H](CCC(=O)O)C(=O)N[C@@H](C)C(=O)N[C@@H](CCC(=O)O)C(=O)N[C@H]1CCC(=O)NCCCC[C@@H](C(=O)N[C@@H](CC(N)=O)C(=O)N[C@@H](CCCNC(=N)N)C(=O)N[C@@H](CC(C)C)C(=O)N[C@@H](CC(C)C)C(=O)N[C@@H](CC(C)C)C(=O)N[C@@H](CCC(=O)O)C(=O)N[C@@H](CCC(=O)O)C(=O)N[C@@H](C)C(N)=O)NC(=O)[C@H](C)NC(=O)[C@H](C)NC1=O` [Example 16 A Ala^32 cyclic analog] (Ac-SLDLT[dF]HLLRE[Nle]LE[Nle]AKAEQEAEEAAKNRLLLEEA-NH2; lactam 24-27), the “in vitro biopotency, comparison in words” value in experiment [1] is “biopotency greater than the Standard peptide”.
Still for that read-out and setting: the same measure for `CCCC[C@H](NC(=O)[C@H](CCC(=O)O)NC(=O)[C@H](CC(C)C)NC(=O)[C@H](CCCC)NC(=O)[C@H](CCC(=O)O)NC(=O)[C@H](CCCNC(=N)N)NC(=O)[C@H](CC(C)C)NC(=O)[C@H](CC(C)C)NC(=O)[C@H](Cc1c[nH]cn1)NC(=O)[C@@H](Cc1ccccc1)NC(=O)[C@@H](NC(=O)[C@H](CC(C)C)NC(=O)[C@H](CC(=O)O)NC(=O)[C@H](CC(C)C)NC(=O)[C@H](CO)NC(C)=O)[C@@H](C)O)C(=O)N[C@@H](C)C(=O)N[C@@H](CCCCN)C(=O)N[C@@H](C)C(=O)N[C@@H](CCC(=O)O)C(=O)N[C@@H](CCC(N)=O)C(=O)N[C@@H](CCC(=O)O)C(=O)N[C@@H](C)C(=O)N[C@@H](CCC(=O)O)C(=O)N[C@H]1CCC(=O)NCCCC[C@@H](C(=O)N[C@@H](CC(N)=O)C(=O)N[C@@H](CCCNC(=N)N)C(=O)N[C@@H](CC(C)C)C(=O)N[C@@H](CC(C)C)C(=O)N[C@@H](CC(C)C)C(=O)N[C@@H](CCC(=O)O)C(=O)N[C@@H](CCC(=O)O)C(=O)N[C@@H](C)C(N)=O)NC(=O)[C@@H](Cc2c[nH]cn2)NC(=O)[C@H](C)NC1=O` [Example 16 A D-His^32 cyclic analog] (Ac-SLDLT[dF]HLLRE[Nle]LE[Nle]AKAEQEAEEA[dH]KNRLLLEEA-NH2; lactam 24-27): “biopotency greater than the Standard peptide”.
On to `CCCC[C@H](NC(=O)[C@H](CCC(=O)O)NC(=O)[C@H](CC(C)C)NC(=O)[C@H](CCCC)NC(=O)[C@H](CCC(=O)O)NC(=O)[C@H](CCCNC(=N)N)NC(=O)[C@H](CC(C)C)NC(=O)[C@H](CC(C)C)NC(=O)[C@H](Cc1c[nH]cn1)NC(=O)[C@@H](Cc1ccccc1)NC(=O)[C@@H](NC(=O)[C@H](CC(C)C)NC(=O)[C@H](CC(=O)O)NC(=O)[C@H](CC(C)C)NC(=O)[C@H](CO)NC(C)=O)[C@@H](C)O)C(=O)N[C@@H](C)C(=O)N[C@@H](CCCCN)C(=O)N[C@@H](C)C(=O)N[C@@H](CCC(=O)O)C(=O)N[C@@H](CCC(N)=O)C(=O)N[C@@H](CCC(=O)O)C(=O)N[C@@H](C)C(=O)N[C@@H](CCC(=O)O)C(=O)N[C@H]1CCC(=O)NCCCC[C@@H](C(=O)N[C@@H](CC(N)=O)C(=O)N[C@@H](CCCNC(=N)N)C(=O)N[C@@H](CC(C)C)C(=O)N[C@@H](CC(C)C)C(=O)N[C@@H](CC(C)C)C(=O)N[C@@H](CCC(=O)O)C(=O)N[C@@H](CCC(=O)O)C(=O)N[C@@H](C)C(N)=O)NC(=O)[C@@H](C)NC(=O)[C@H](C)NC1=O` [Example 16 A, (cyclo 30-33)[Ac-Ser^7, D-Phe^12, Nle^18,21, Glu^30, D-Ala^32, Lys^33]-AHC(7-41)] (Ac-SLDLT[dF]HLLRE[Nle]LE[Nle]AKAEQEAEEA[dA]KNRLLLEEA-NH2; lactam 24-27), for which, in experiment [2], the “lowering of blood pressure when administered peripherally, in words” value is “very significant lowering of blood pressure”. For the same compound, in experiment [1], the “stimulation of secretion of ACTH and β-END-LI (testing by the general procedure), in words” value was “strongly stimulates the secretion of ACTH and β-END-LI”.
Turning to `CCCC[C@H](NC(=O)[C@H](CCCCN)NC(=O)[C@H](CCCNC(=N)N)NC(=O)[C@H](CC(C)C)NC(=O)[C@H](CC(C)C)NC(=O)[C@H](CCC(=O)O)NC(=O)[C@@H](CC(C)C)NC(=O)[C@H](CO)NC(=O)[C@H](CC(C)C)NC(=O)[C@H](CC(=O)O)NC(=O)[C@@H](NC(=O)[C@H](CO)NC(C)=O)[C@@H](C)CC)C(=O)N[C@H](C(=O)N[C@@H](CCC(=O)O)C(=O)N[C@H](C(=O)N[C@@H](CCC(=O)O)C(=O)N[C@@H](CCCCN)C(=O)N[C@@H](CCC(N)=O)C(=O)N[C@@H](CCC(=O)O)C(=O)N[C@@H](CCCCN)C(=O)N[C@@H](CCC(=O)O)C(=O)N[C@@H](CCCCN)C(=O)N[C@@H](CCC(N)=O)C(=O)N[C@H]1CCC(=O)NCCCC[C@@H](C(=O)N[C@@H](CC(N)=O)C(=O)N[C@@H](CCCNC(=N)N)C(=O)N[C@@H](CC(C)C)C(=O)N[C@@H](CC(C)C)C(=O)N[C@@H](CC(C)C)C(=O)N[C@@H](CC(=O)O)C(=O)N[C@H](C(=O)N[C@H](C(N)=O)[C@@H](C)CC)[C@@H](C)O)NC(=O)[C@@H](C)NC(=O)[C@H](C)NC1=O)[C@@H](C)CC)[C@@H](C)CC` [Example 16 C D-Ala^31 analog] (Ac-SIDLS[dL]ELLRK[Nle]IEIEKQEKEKQEA[dA]KNRLLLDTI-NH2; lactam 24-27), the “in vitro biopotency, comparison in words” value in experiment [1] was “shows increased biopotency”.
In the case of `CCCC[C@H](NC(=O)[C@H](CCCCN)NC(=O)[C@H](CCCNC(=N)N)NC(=O)[C@H](CC(C)C)NC(=O)[C@H](CC(C)C)NC(=O)[C@H](CCC(=O)O)NC(=O)[C@@H](CC(C)C)NC(=O)[C@H](CO)NC(=O)[C@H](CC(C)C)NC(=O)[C@H](CC(=O)O)NC(=O)[C@@H](NC(=O)[C@H](CO)NC(C)=O)[C@@H](C)CC)C(=O)N[C@H](C(=O)N[C@@H](CCC(=O)O)C(=O)N[C@H](C(=O)N[C@@H](CCC(=O)O)C(=O)N[C@@H](CCCCN)C(=O)N[C@@H](CCC(N)=O)C(=O)N[C@@H](CCC(=O)O)C(=O)N[C@@H](CCCCN)C(=O)N[C@@H](CCC(=O)O)C(=O)N[C@@H](CCCCN)C(=O)N[C@@H](CCC(N)=O)C(=O)N[C@H]1CCC(=O)NCCCC[C@@H](C(=O)N[C@@H](CC(N)=O)C(=O)N[C@@H](CCCNC(=N)N)C(=O)N[C@@H](CC(C)C)C(=O)N[C@@H](CC(C)C)C(=O)N[C@@H](CC(C)C)C(=O)N[C@@H](CC(=O)O)C(=O)N[C@H](C(=O)N[C@H](C(N)=O)[C@@H](C)CC)[C@@H](C)O)NC(=O)[C@H](C)NC(=O)[C@H](C)NC1=O)[C@@H](C)CC)[C@@H](C)CC` [Example 16 C, (cyclo 29-32)[Ac-Ser^6, D-Leu^11, Nle^17, Glu^29, Lys^32]-sauvagine(6-40)] (Ac-SIDLS[dL]ELLRK[Nle]IEIEKQEKEKQEAAKNRLLLDTI-NH2; lactam 24-27), in experiment [2], the “lowering of blood pressure when administered peripherally, in words” value was “very significant lowering of blood pressure”. Further, the “stimulation of secretion of ACTH and β-END-LI (testing by the general procedure), in words” value in experiment [1] was “stimulates the secretion of ACTH and β-END-LI”.
